According to ChEMBL document CHEMBL1130983, “New acetylene based histamine H3 receptor antagonists derived from the marine natural product verongamine” (Bioorg Med Chem Lett, 1998):

Key:
Rattus norvegicus = organism: Rattus norvegicus; experiment: Effective dose was evaluated for blood brain penetration using ex vivo binding techniques; format: functional
Cavia porcellus = organism: Cavia porcellus; experiment: In vitro activity on K+ induced R-alpha methyl histamine mediated inhibition of norepinephrine release from guinea pig cardiac synaptosomes; format: functional
Histamine H3 receptor [1] = target: T1, Histamine H3 receptor (Rattus norvegicus, UniProt Q9QYN8); experiment: Inhibition of [3H]- N-alpha-methylhistamine from histamine H3 receptor
Histamine H3 receptor [2] = target: T1, Histamine H3 receptor; experiment: Antagonistic activity was evaluated against histamine H3 receptor using [3H]- N-alpha-methylhistamine as radioligand in experiment 2; format: functional

T1 sequence (Q9QYN8 whole entry): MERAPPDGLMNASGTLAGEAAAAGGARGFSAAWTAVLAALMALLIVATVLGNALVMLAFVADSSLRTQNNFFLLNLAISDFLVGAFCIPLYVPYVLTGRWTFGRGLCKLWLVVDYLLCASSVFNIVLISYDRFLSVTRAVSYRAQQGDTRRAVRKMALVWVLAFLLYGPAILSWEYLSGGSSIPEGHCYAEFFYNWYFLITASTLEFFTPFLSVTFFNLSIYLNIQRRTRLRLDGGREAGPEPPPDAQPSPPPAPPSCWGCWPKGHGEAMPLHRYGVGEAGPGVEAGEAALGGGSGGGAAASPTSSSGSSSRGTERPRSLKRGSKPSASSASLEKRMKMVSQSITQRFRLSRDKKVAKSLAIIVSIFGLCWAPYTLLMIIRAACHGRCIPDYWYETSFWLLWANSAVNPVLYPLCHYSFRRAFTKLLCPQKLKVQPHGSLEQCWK

Structure (SMILES) | ED50 (Rattus norvegicus) [mg/kg] | Release (Cavia porcellus) [%] | Ki (Histamine H3 receptor [1]) [nM] | Ki (Histamine H3 receptor [2]) [nM]
C(#CCCC1CCCCC1)CCc1c[nH]cn1 | 0.43 | 122 |  | 
COc1ccc(C/C(=N\O)C(=O)NCCc2c[nH]cn2)cc1Br [VERONGAMINE] |  |  | 0.5 | 
S=C(NC1CCCCC1)N1CCC(c2cnc[nH]2)CC1 [THIOPERAMIDE] |  |  |  | 1.54
Cn1cncc1CCN |  | 106 | 1 | 
C(#CCCC1CCCC1)CCc1c[nH]cn1 | 0.48 | 111 |  | 
